Assay results published in PubChem BioAssay (NCI).
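Five concentrations, 48 hours, 96-well plates. TGI marks complete inhibition of growth.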

Key:
Assay in all cases: inhibition of tumour cell growth, NCI panel, 48 h
HCT-15 colon = test system: HCT-15 colon
HOP-62 NSCLC = test system: HOP-62 NSCLC
IGROV1 ovarian = test system: IGROV1 ovarian
KM12 colon = test system: KM12 colon
MDA-MB-231 breast = test system: MDA-MB-231 breast
OVCAR-5 ovarian = test system: OVCAR-5 ovarian
RXF 393 renal = test system: RXF 393 renal
SK-MEL-5 melanoma = test system: SK-MEL-5 melanoma
SN12C renal = test system: SN12C renal
T-47D breast = test system: T-47D breast

Cc1cc(S(=O)(=O)Nc2nnc3c(C(F)(F)F)cc(Cl)cn23)c(S)cc1Cl
TGI (HCT-15 colon): > 100 µM | TGI (HOP-62 NSCLC): > 100 µM | TGI (IGROV1 ovarian): > 100 µM | TGI (KM12 colon): > 100 µM | TGI (MDA-MB-231 breast): > 100 µM | TGI (OVCAR-5 ovarian): > 100 µM | TGI (RXF 393 renal): > 100 µM | TGI (SK-MEL-5 melanoma): > 100 µM | TGI (SN12C renal): > 100 µM | TGI (T-47D breast): > 100 µM

COC(=O)c1ccc(-c2nc(C#N)c(N)o2)cc1
TGI (HCT-15 colon): > 100 µM | TGI (HOP-62 NSCLC): > 100 µM | TGI (IGROV1 ovarian): > 100 µM | TGI (KM12 colon): > 100 µM | TGI (MDA-MB-231 breast): 85.8 µM | TGI (OVCAR-5 ovarian): > 100 µM | TGI (RXF 393 renal): > 100 µM | TGI (SK-MEL-5 melanoma): > 100 µM | TGI (SN12C renal): > 100 µM | TGI (T-47D breast): > 100 µM

CC(=O)N(CN1C(=O)CCC1C(=O)O)c1ccccc1 (configuration not stated)
TGI (HCT-15 colon): > 100 µM | TGI (HOP-62 NSCLC): > 100 µM | TGI (IGROV1 ovarian): > 100 µM | TGI (KM12 colon): > 100 µM | TGI (MDA-MB-231 breast): > 100 µM | TGI (OVCAR-5 ovarian): > 100 µM | TGI (RXF 393 renal): > 100 µM | TGI (SK-MEL-5 melanoma): > 100 µM | TGI (SN12C renal): > 100 µM | TGI (T-47D breast): > 100 µM

CCN(CC)CCO/N=C1\CC[C@H]2[C@@H]3CC=C4C[C@@H](O)CC[C@]4(C)[C@H]3CC[C@]12C
TGI (HCT-15 colon): 28.5 µM | TGI (HOP-62 NSCLC): 35.2 µM | TGI (IGROV1 ovarian): > 100 µM | TGI (KM12 colon): 38.5 µM | TGI (MDA-MB-231 breast): 41.2 µM | TGI (OVCAR-5 ovarian): > 100 µM | TGI (RXF 393 renal): 34.1 µM | TGI (SK-MEL-5 melanoma): 25.4 µM | TGI (SN12C renal): > 100 µM

O=C(/C=C/c1ccc(-c2ccccc2[N+](=O)[O-])o1)NCc1ccc(C(=O)NCCc2ccccc2)cc1
TGI (HCT-15 colon): > 100 µM | TGI (HOP-62 NSCLC): > 100 µM | TGI (IGROV1 ovarian): > 100 µM | TGI (KM12 colon): > 100 µM | TGI (MDA-MB-231 breast): > 100 µM | TGI (OVCAR-5 ovarian): > 100 µM | TGI (RXF 393 renal): > 100 µM | TGI (SK-MEL-5 melanoma): > 100 µM | TGI (SN12C renal): > 100 µM | TGI (T-47D breast): > 100 µM

Cc1ccc(S(=O)(=O)n2cncc2CO)cc1
TGI (HCT-15 colon): > 100 µM | TGI (HOP-62 NSCLC): > 100 µM | TGI (IGROV1 ovarian): > 100 µM | TGI (KM12 colon): > 100 µM | TGI (MDA-MB-231 breast): > 100 µM | TGI (OVCAR-5 ovarian): > 100 µM | TGI (RXF 393 renal): > 100 µM | TGI (SK-MEL-5 melanoma): > 100 µM | TGI (SN12C renal): > 100 µM | TGI (T-47D breast): > 100 µM

CCOC(=O)c1ccc(C(=O)C(C(C)=O)C(=O)OC(C)(C)C)n1C (configuration not stated)
TGI (HCT-15 colon): > 100 µM | TGI (HOP-62 NSCLC): > 100 µM | TGI (IGROV1 ovarian): > 100 µM | TGI (KM12 colon): > 100 µM | TGI (MDA-MB-231 breast): > 100 µM | TGI (OVCAR-5 ovarian): > 100 µM | TGI (RXF 393 renal): > 100 µM | TGI (SK-MEL-5 melanoma): > 100 µM | TGI (SN12C renal): > 100 µM | TGI (T-47D breast): > 100 µM

Cc1ccc(C(=O)N(C(C)C)C(C)C)cc1N=NN(C)C
TGI (HCT-15 colon): > 100 µM | TGI (HOP-62 NSCLC): > 100 µM | TGI (IGROV1 ovarian): > 100 µM | TGI (KM12 colon): > 100 µM | TGI (MDA-MB-231 breast): > 100 µM | TGI (OVCAR-5 ovarian): > 100 µM | TGI (SK-MEL-5 melanoma): > 100 µM | TGI (SN12C renal): > 100 µM | TGI (T-47D breast): > 100 µM

O=C(CC(O)(C(F)(F)F)C(F)(F)F)C(CCCl)C(O)(C(F)(F)F)C(F)(F)F (configuration not stated)
TGI (HCT-15 colon): > 100 µM | TGI (HOP-62 NSCLC): > 100 µM | TGI (IGROV1 ovarian): > 100 µM | TGI (KM12 colon): > 100 µM | TGI (MDA-MB-231 breast): > 100 µM | TGI (OVCAR-5 ovarian): > 100 µM | TGI (RXF 393 renal): 70.9 µM | TGI (SK-MEL-5 melanoma): 71 µM | TGI (SN12C renal): 67 µM | TGI (T-47D breast): 78 µM

Cc1cc2ccccc2c[n+]1CC(O)C[n+]1cc2ccccc2cc1C
TGI (HCT-15 colon): > 100 µM | TGI (HOP-62 NSCLC): > 100 µM | TGI (IGROV1 ovarian): > 100 µM | TGI (KM12 colon): > 100 µM | TGI (MDA-MB-231 breast): > 100 µM | TGI (OVCAR-5 ovarian): > 100 µM | TGI (RXF 393 renal): > 100 µM | TGI (SK-MEL-5 melanoma): > 100 µM | TGI (SN12C renal): > 100 µM | TGI (T-47D breast): > 100 µM

CCc1nnc(-n2c(C)nc3cc(Cl)ccc3c2=O)s1
TGI (HCT-15 colon): > 100 µM | TGI (HOP-62 NSCLC): > 100 µM | TGI (IGROV1 ovarian): > 100 µM | TGI (KM12 colon): > 100 µM | TGI (MDA-MB-231 breast): > 100 µM | TGI (OVCAR-5 ovarian): > 100 µM | TGI (RXF 393 renal): > 100 µM | TGI (SK-MEL-5 melanoma): 65.9 µM | TGI (SN12C renal): > 100 µM | TGI (T-47D breast): > 100 µM

COc1ccc(C2OC(=O)c3c2ccc2ccccc32)c(C)c1 (configuration not stated)
TGI (HCT-15 colon): 19.9 µM | TGI (HOP-62 NSCLC): 50 µM | TGI (IGROV1 ovarian): > 100 µM | TGI (KM12 colon): > 100 µM | TGI (MDA-MB-231 breast): > 100 µM | TGI (OVCAR-5 ovarian): > 100 µM | TGI (RXF 393 renal): > 100 µM | TGI (SK-MEL-5 melanoma): 6.82 µM | TGI (SN12C renal): 88.2 µM

O=C1NC(=S)N/C1=C/c1ccccc1O
TGI (HCT-15 colon): > 100 µM | TGI (HOP-62 NSCLC): > 100 µM | TGI (IGROV1 ovarian): > 100 µM | TGI (MDA-MB-231 breast): > 100 µM | TGI (OVCAR-5 ovarian): > 100 µM | TGI (RXF 393 renal): > 100 µM | TGI (SK-MEL-5 melanoma): > 100 µM | TGI (SN12C renal): > 100 µM | TGI (T-47D breast): > 100 µM

CC(NC(=O)/C(=C/c1ccccc1O)NC(=O)c1ccccc1)C(=O)O (configuration not stated)
TGI (HCT-15 colon): 80.4 µM | TGI (IGROV1 ovarian): > 100 µM | TGI (KM12 colon): > 100 µM | TGI (MDA-MB-231 breast): 60 µM | TGI (OVCAR-5 ovarian): > 100 µM | TGI (RXF 393 renal): 57.6 µM | TGI (SK-MEL-5 melanoma): > 100 µM | TGI (SN12C renal): 48.1 µM | TGI (T-47D breast): > 100 µM

CN1CCn2c(Br)ccc2C1=O
TGI (HCT-15 colon): > 100 µM | TGI (HOP-62 NSCLC): > 100 µM | TGI (IGROV1 ovarian): > 100 µM | TGI (KM12 colon): > 100 µM | TGI (RXF 393 renal): > 100 µM | TGI (SN12C renal): > 100 µM

CN=C(Nn1cnnc1)OC
TGI (HCT-15 colon): > 100 µM | TGI (HOP-62 NSCLC): > 100 µM | TGI (IGROV1 ovarian): > 100 µM | TGI (KM12 colon): > 100 µM | TGI (MDA-MB-231 breast): > 100 µM | TGI (OVCAR-5 ovarian): > 100 µM | TGI (RXF 393 renal): > 100 µM | TGI (SK-MEL-5 melanoma): > 100 µM | TGI (T-47D breast): > 100 µM

O=c1[nH]c(=O)n(C2OC(COP(=O)(O)OP(=O)(O)O)C(O)C2O)cc1F (configuration not stated)
TGI (HCT-15 colon): > 50 µM | TGI (HOP-62 NSCLC): 29.6 µM | TGI (IGROV1 ovarian): > 50 µM | TGI (KM12 colon): > 50 µM | TGI (OVCAR-5 ovarian): > 44.1 µM | TGI (RXF 393 renal): 13.8 µM | TGI (SK-MEL-5 melanoma): > 50 µM | TGI (SN12C renal): > 50 µM

O=[N+]([O-])c1cccc([N+](=O)[O-])c1S(=O)(=O)c1ccccc1
TGI (HCT-15 colon): 4.1 µM | TGI (HOP-62 NSCLC): 35.1 µM | TGI (IGROV1 ovarian): 4.2 µM | TGI (KM12 colon): 32 µM | TGI (MDA-MB-231 breast): 37.3 µM | TGI (OVCAR-5 ovarian): 9.18 µM | TGI (SK-MEL-5 melanoma): 28.3 µM | TGI (SN12C renal): 12.3 µM | TGI (T-47D breast): 4.8 µM

CC(CCC(=O)O)[C@H]1CCC2[C@H]3C(CC[C@@]21C)[C@@]1(C)CCC(O)C[C@H]1C[C@@H]3O (some centres not stated)
TGI (HCT-15 colon): > 100 µM | TGI (HOP-62 NSCLC): > 100 µM | TGI (IGROV1 ovarian): > 100 µM | TGI (KM12 colon): > 100 µM | TGI (MDA-MB-231 breast): > 100 µM | TGI (OVCAR-5 ovarian): > 100 µM | TGI (RXF 393 renal): > 100 µM | TGI (SN12C renal): > 100 µM | TGI (T-47D breast): > 100 µM

CCOC(=O)c1cc2c(OC(C)=O)ccc(OC(C)=O)c2s1
TGI (HCT-15 colon): 3.34 µM | TGI (HOP-62 NSCLC): 23.9 µM | TGI (IGROV1 ovarian): 6.52 µM | TGI (KM12 colon): 17.6 µM | TGI (MDA-MB-231 breast): 4.64 µM | TGI (OVCAR-5 ovarian): 18.9 µM | TGI (RXF 393 renal): 3.42 µM | TGI (SK-MEL-5 melanoma): 6.69 µM | TGI (SN12C renal): 5.11 µM

COC(=O)c1sc(=S)sc1SCc1ccccc1CSc1sc(=S)sc1C(=O)OC
TGI (HCT-15 colon): > 100 µM | TGI (HOP-62 NSCLC): > 100 µM | TGI (IGROV1 ovarian): > 100 µM | TGI (KM12 colon): > 100 µM | TGI (MDA-MB-231 breast): > 100 µM | TGI (OVCAR-5 ovarian): > 100 µM | TGI (RXF 393 renal): > 100 µM | TGI (SK-MEL-5 melanoma): > 100 µM | TGI (SN12C renal): > 100 µM

CCOC(=O)C(C)(C)Oc1ccc2c(=O)cc(-c3ccccc3)oc2c1
TGI (HCT-15 colon): 54.8 µM | TGI (HOP-62 NSCLC): 41 µM | TGI (IGROV1 ovarian): 78.4 µM | TGI (KM12 colon): 35.9 µM | TGI (OVCAR-5 ovarian): > 100 µM | TGI (RXF 393 renal): 78.1 µM | TGI (SK-MEL-5 melanoma): 28.2 µM | TGI (SN12C renal): > 100 µM
